Test systems include SF-295 CNS; OVCAR-8 ovarian; MOLT-4 leukemia; UO-31 renal; IGROV1 ovarian; HOP-92 NSCLC; SK-MEL-2 melanoma; OVCAR-4 ovarian; SK-MEL-28 melanoma; RPMI-8226 leukemia.
Common to all, as to assay: NCI-60 cell line screen, 48 h

Each structure is given as a SMILES string.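 Compound exposure: 48 hours, 5 concentrations, 96-well plates. GI50 marks 50% less growth. TGI is the concentration that stops growth completely.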

In PubChem BioAssay (NCI) one finds TGI and GI50 data, which are given here for ten compounds.

On to `O=C(O)[C@@H]1OCCOCCO[C@@H](C(=O)O)[C@H](C(=O)O)OCCOCCO[C@H]1C(=O)O`, for which the TGI in the experiment on SF-295 CNS, in the experiment with OVCAR-8 ovarian, in the experiment on MOLT-4 leukemia, in the experiment on UO-31 renal, with IGROV1 ovarian and in the experiment on HOP-92 NSCLC was > 100000 nM each time. The TGI with SK-MEL-2 melanoma was > 100000 nM; in the experiment with OVCAR-4 ovarian it was > 100000 nM; in the experiment on SK-MEL-28 melanoma, > 100000 nM; with RPMI-8226 leukemia it was > 60900 nM.

Turning to `CCOC(=O)C(=O)Nc1cc(Cl)c(Cl)cc1Cl`, the TGI with SF-295 CNS, with OVCAR-8 ovarian, in the experiment with MOLT-4 leukemia, with UO-31 renal, in the experiment with IGROV1 ovarian and in the experiment with HOP-92 NSCLC was > 100000 nM in each case. Further, the TGI in the experiment on SK-MEL-2 melanoma, in the experiment with OVCAR-4 ovarian, with SK-MEL-28 melanoma and in the experiment with RPMI-8226 leukemia was > 100000 nM in each case.

Regarding `N#Cc1ccc(-c2c(-c3ncn[nH]3)sc(N3CCOCC3)c2C#N)c(F)c1`, the GI50 was 426 nM with SF-295 CNS; 1850 nM in the experiment with OVCAR-8 ovarian; 484 nM in the experiment with MOLT-4 leukemia; 191 nM in the experiment on UO-31 renal; 181 nM in the experiment on IGROV1 ovarian; 66.3 nM in the experiment on HOP-92 NSCLC. The GI50 in the experiment with SK-MEL-2 melanoma was 1920 nM; in the experiment with OVCAR-4 ovarian, 2820 nM; with SK-MEL-28 melanoma it was 458 nM; with RPMI-8226 leukemia, 4500 nM. The TGI was 11400 nM with SF-295 CNS; > 100000 nM with OVCAR-8 ovarian; 27600 nM in the experiment with MOLT-4 leukemia; 11200 nM in the experiment on UO-31 renal; 948 nM with IGROV1 ovarian; 973 nM in the experiment on HOP-92 NSCLC. In addition, the TGI is 10700 nM in the experiment on SK-MEL-2 melanoma, 36600 nM in the experiment on OVCAR-4 ovarian, 5330 nM in the experiment with SK-MEL-28 melanoma and 48600 nM in the experiment with RPMI-8226 leukemia.

Take `CO[C@@H]1CCN(c2nccc(Nc3cc4c(C(C)C)ccc(N5CC(CS(C)(=O)=O)[C@H]5C)c4cn3)n2)C[C@@H]1F` (some centres not stated): the GI50 with SF-295 CNS is 3150 nM; in the experiment on OVCAR-8 ovarian it was 2830 nM; in the experiment on MOLT-4 leukemia, 2980 nM; with UO-31 renal, 1410 nM; in the experiment with IGROV1 ovarian, 1030 nM; with HOP-92 NSCLC, 10600 nM. Further, the GI50 was 4700 nM in the experiment on SK-MEL-2 melanoma, 2920 nM in the experiment on OVCAR-4 ovarian, 5520 nM in the experiment with SK-MEL-28 melanoma and 2140 nM with RPMI-8226 leukemia. The TGI is 10100 nM in the experiment on SF-295 CNS; > 100000 nM with OVCAR-8 ovarian; > 100000 nM in the experiment with MOLT-4 leukemia; 11900 nM in the experiment with UO-31 renal; 7130 nM in the experiment with IGROV1 ovarian; > 100000 nM in the experiment with HOP-92 NSCLC. The TGI was 17600 nM with SK-MEL-2 melanoma, 53100 nM in the experiment on OVCAR-4 ovarian, > 100000 nM in the experiment on SK-MEL-28 melanoma and 7330 nM in the experiment with RPMI-8226 leukemia.

As to `CN(C)C(=O)OCc1nc2c(N3CCOCC3)nc(-c3ccccc3)nc2n1C`, the GI50 is 1650 nM in the experiment with SF-295 CNS; 1260 nM in the experiment with OVCAR-8 ovarian; 497 nM with MOLT-4 leukemia; 373 nM in the experiment on UO-31 renal; 618 nM with IGROV1 ovarian; 399 nM in the experiment with HOP-92 NSCLC. The GI50 with SK-MEL-2 melanoma is 1770 nM; in the experiment with OVCAR-4 ovarian, 790 nM; in the experiment with SK-MEL-28 melanoma, 1550 nM; in the experiment on RPMI-8226 leukemia it was 189 nM. The TGI with SF-295 CNS was 3080 nM; with OVCAR-8 ovarian, 3240 nM; with MOLT-4 leukemia it was 3140 nM; in the experiment on UO-31 renal, 1550 nM; with IGROV1 ovarian, 1920 nM; with HOP-92 NSCLC, 1240 nM. The TGI came to 3430 nM in the experiment with SK-MEL-2 melanoma, 2160 nM in the experiment with OVCAR-4 ovarian, 2900 nM with SK-MEL-28 melanoma and 675 nM in the experiment with RPMI-8226 leukemia.

As to `CNCC/C=C1\c2cc3c(cc2-c2c1c1cc(OC)c(OC)cc1c(=O)n2C)OCO3`, the GI50 in the experiment with SF-295 CNS was 81.1 nM; with OVCAR-8 ovarian it was 248 nM; with MOLT-4 leukemia it was < 10 nM; in the experiment with UO-31 renal, 548 nM; in the experiment with IGROV1 ovarian, < 50.5 nM; in the experiment with HOP-92 NSCLC it was 301 nM. Further, the GI50 in the experiment on SK-MEL-2 melanoma is 9680 nM; with OVCAR-4 ovarian, 6720 nM; in the experiment on SK-MEL-28 melanoma, 11800 nM; in the experiment with RPMI-8226 leukemia, 149 nM. Moreover, the TGI in the experiment on SF-295 CNS is 15600 nM; in the experiment on OVCAR-8 ovarian it was 6550 nM; with UO-31 renal, > 100000 nM; with HOP-92 NSCLC, 2740 nM; in the experiment with SK-MEL-2 melanoma it was > 100000 nM; in the experiment with OVCAR-4 ovarian, 44800 nM. Also, the TGI with SK-MEL-28 melanoma was > 69400 nM.

Consider `COCCOCCOCc1n(Cc2ccc3ccccc3c2)c2ccccc2[n+]1Cc1ccc2ccccc2c1`, for which the GI50 with SF-295 CNS was 691 nM; in the experiment with OVCAR-8 ovarian it was 421 nM; with MOLT-4 leukemia it was 693 nM; in the experiment on UO-31 renal, 1830 nM; with IGROV1 ovarian it was 328 nM; with HOP-92 NSCLC it was 149 nM. For the same compound, the GI50 in the experiment with SK-MEL-2 melanoma was 313 nM; in the experiment on OVCAR-4 ovarian, 231 nM; in the experiment with SK-MEL-28 melanoma it was 503 nM; in the experiment on RPMI-8226 leukemia, 117 nM. Also, the TGI in the experiment on SF-295 CNS is 2160 nM; in the experiment on OVCAR-8 ovarian, 1740 nM; in the experiment with MOLT-4 leukemia, 2430 nM; in the experiment on UO-31 renal it was 4580 nM; in the experiment on IGROV1 ovarian it was 1550 nM; in the experiment on HOP-92 NSCLC, 829 nM. For the same compound, the TGI was found to be 941 nM with SK-MEL-2 melanoma, 1190 nM in the experiment with OVCAR-4 ovarian, 1920 nM in the experiment on SK-MEL-28 melanoma and 1150 nM in the experiment on RPMI-8226 leukemia.

For `CCCCCCCCOCC(O)CO` (configuration not stated), the TGI with SF-295 CNS, with OVCAR-8 ovarian, with MOLT-4 leukemia, with UO-31 renal, with IGROV1 ovarian and in the experiment with HOP-92 NSCLC was > 100000 nM each time. The TGI in the experiment on SK-MEL-2 melanoma, in the experiment with OVCAR-4 ovarian, in the experiment on SK-MEL-28 melanoma and in the experiment with RPMI-8226 leukemia was > 100000 nM each time.

As for `CC1=C(C(=O)NCc2ccccc2)C(c2ccc(Cl)c(Cl)c2)C(C(=O)NCc2ccccc2)=C(C)N1`, the TGI in the experiment on SF-295 CNS, in the experiment on OVCAR-8 ovarian, with MOLT-4 leukemia, in the experiment with UO-31 renal, with IGROV1 ovarian and in the experiment on HOP-92 NSCLC was > 100000 nM in each case. The TGI in the experiment with SK-MEL-2 melanoma, in the experiment with OVCAR-4 ovarian, in the experiment on SK-MEL-28 melanoma and with RPMI-8226 leukemia was > 100000 nM throughout.

In the case of `C/C(=N\NC(N)=S)c1ccc(C)c(C)c1`, the TGI is > 100000 nM with SF-295 CNS; > 100000 nM in the experiment on OVCAR-8 ovarian; 90200 nM with MOLT-4 leukemia; > 100000 nM with UO-31 renal; > 100000 nM in the experiment on IGROV1 ovarian; > 100000 nM in the experiment on HOP-92 NSCLC. In addition, the TGI with SK-MEL-2 melanoma, in the experiment on OVCAR-4 ovarian, in the experiment on SK-MEL-28 melanoma and in the experiment with RPMI-8226 leukemia was > 100000 nM each time.
